This passage reports EC50 results from patent US20220251163A1 (Sinopep-Allsino Biopharmaceutical Co., Ltd., priority 2019, published 2022).

Each structure is given as a SMILES string. Where a SMILES comes first, the peptide text is derived from it.

One experiment concerns the target T1, mGIPR (Mus musculus, UniProt Q0P543).
T1 construct: expressed in transfected cells; host or cells: HEK293
T1 sequence (Q0P543 19-460): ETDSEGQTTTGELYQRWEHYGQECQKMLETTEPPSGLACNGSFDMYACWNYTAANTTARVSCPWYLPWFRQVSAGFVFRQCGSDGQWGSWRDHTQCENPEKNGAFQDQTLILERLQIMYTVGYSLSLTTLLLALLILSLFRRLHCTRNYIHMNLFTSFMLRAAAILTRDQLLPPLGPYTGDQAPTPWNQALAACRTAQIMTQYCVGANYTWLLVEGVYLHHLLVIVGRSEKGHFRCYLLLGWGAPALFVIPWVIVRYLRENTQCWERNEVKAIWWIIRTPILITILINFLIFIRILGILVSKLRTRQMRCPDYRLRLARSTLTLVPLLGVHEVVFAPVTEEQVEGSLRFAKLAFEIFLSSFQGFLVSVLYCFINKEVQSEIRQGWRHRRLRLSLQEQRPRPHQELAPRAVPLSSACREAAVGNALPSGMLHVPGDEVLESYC
As to the kind of experiment: GIPR agonist activity, cAMP in transfected HEK293 cells. In kind it is cell-based. The settings on record: HEK293 cells transfected with GIPR, cAMP, 20 min incubation; read-out: mGIPR EC50.

The target in a further experiment is T2, mGLP-1R (Mus musculus, UniProt O35659).
T2 construct: expressed in transfected cells; host or cells: HEK293
T2 sequence (O35659 22-463): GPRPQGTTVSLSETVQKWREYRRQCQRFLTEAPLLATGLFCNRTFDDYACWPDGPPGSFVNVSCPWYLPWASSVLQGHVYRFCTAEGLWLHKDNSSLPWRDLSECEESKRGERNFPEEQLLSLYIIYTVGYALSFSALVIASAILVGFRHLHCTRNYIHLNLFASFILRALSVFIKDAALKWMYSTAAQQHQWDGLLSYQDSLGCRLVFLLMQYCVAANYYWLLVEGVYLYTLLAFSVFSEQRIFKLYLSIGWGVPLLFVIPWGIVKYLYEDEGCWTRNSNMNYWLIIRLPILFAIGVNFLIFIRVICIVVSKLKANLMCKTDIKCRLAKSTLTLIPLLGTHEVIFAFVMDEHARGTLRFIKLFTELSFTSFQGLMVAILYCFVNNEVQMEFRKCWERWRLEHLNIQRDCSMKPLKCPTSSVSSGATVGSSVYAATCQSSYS
The experiment is described as follows: GLP-1R agonist activity, cAMP in transfected HEK293 cells. As to conditions: HEK293 cells transfected with GLP-1R, cAMP, 20 min incubation; read-out: mGLP-1R EC50. In kind it is cell-based.

Procedure for mGIPR: HEK293 cells were co-transfected with cDNA encoding GLP-1R or GIPR. In a test for determining the compound, the cells were inoculated in a 96-well plate 2 h in advance, the polypeptide compound was dissolved with DMSO, and diluted to different multiples with a culture medium containing 0.1% bovine serum albumin and added to the co-transfected cells.

Turning to `CCCCCCCCCCCCCCCC(=O)N[C@@H](CCC(=O)NCCCC[C@H](NC(=O)[C@H](CCC(N)=O)NC(=O)[C@H](C)NC(=O)[C@@H](NC(=O)[C@H](CCCCN)NC(=O)[C@H](CC(=O)O)NC(=O)[C@H](CC(C)C)NC(=O)[C@H](C)NC(=O)[C@@H](NC(=O)[C@H](CO)NC(=O)[C@H](Cc1ccc(O)cc1)NC(=O)[C@H](CC(=O)O)NC(=O)[C@H](CO)NC(=O)[C@@H](NC(=O)[C@H](Cc1ccccc1)NC(=O)[C@@H](NC(=O)CNC(=O)[C@H](CCC(=O)O)NC(=O)[C@H](C)NC(=O)[C@@H](N)Cc1ccc(O)cc1)[C@@H](C)O)[C@@H](C)O)[C@@H](C)CC)[C@@H](C)CC)C(=O)N[C@@H](C)C(=O)N[C@@H](Cc1ccccc1)C(=O)N[C@H](C(=O)N[C@@H](CCC(N)=O)C(=O)N[C@@H](Cc1c[nH]c2ccccc12)C(=O)N[C@@H](CC(C)C)C(=O)N[C@H](C(=O)N[C@@H](C)C(=O)NCC(=O)NCC(=O)N1CCC[C@H]1C(=O)N[C@@H](CO)C(=O)N[C@@H](CO)C(=O)NCC(=O)N[C@@H](C)C(=O)N1CCC[C@H]1C(=O)N1CCC[C@H]1C(=O)N1CCC[C@H]1C(=O)N[C@@H](CO)C(N)=O)[C@@H](C)CC)C(C)C)C(=O)O` [ID NO: 15], the EC50 (commonly the concentration that produces a half-maximal response) on mGIPR worked out at 0.0532 nM; at mGLP-1R, 0.0429 nM.
Turning to `CCCCCCCCCCCCCCCC(=O)N[C@@H](CCC(=O)NCCCC[C@H](NC(=O)[C@H](CCC(N)=O)NC(=O)[C@H](C)NC(=O)[C@@H](NC(=O)[C@H](CCCCN)NC(=O)[C@H](CC(=O)O)NC(=O)[C@H](CC(C)C)NC(=O)C(C)(C)NC(=O)[C@@H](NC(=O)[C@H](CO)NC(=O)[C@H](Cc1ccc(O)cc1)NC(=O)[C@H](CC(=O)O)NC(=O)[C@H](CO)NC(=O)[C@@H](NC(=O)[C@H](Cc1ccccc1)NC(=O)[C@@H](NC(=O)CNC(=O)[C@H](CCC(=O)O)NC(=O)[C@H](C)NC(=O)[C@@H](N)Cc1ccc(O)cc1)[C@@H](C)O)[C@@H](C)O)[C@@H](C)CC)[C@@H](C)CC)C(=O)N[C@@H](C)C(=O)N[C@@H](Cc1ccccc1)C(=O)N[C@H](C(=O)N[C@@H](CCC(N)=O)C(=O)N[C@@H](Cc1c[nH]c2ccccc12)C(=O)N[C@@H](CC(C)C)C(=O)N[C@H](C(=O)N[C@@H](C)C(=O)NCC(=O)NCC(=O)N1CCC[C@H]1C(=O)N[C@@H](CO)C(=O)N[C@@H](CO)C(=O)NCC(=O)N[C@@H](C)C(=O)N1CCC[C@H]1C(=O)N1CCC[C@H]1C(=O)N1CCC[C@H]1C(=O)N[C@@H](CO)C(N)=O)[C@@H](C)CC)C(C)C)C(=O)O` [ID NO: 16] (HELM PEPTIDE1{Y.A.E.G.T.F.T.S.D.Y.S.I.[Aib].L.D.K.I.A.Q.K.A.F.V.Q.W.L.I.A.G.G.P.S.S.G.A.P.P.P.S.[am]}|PEPTIDE2{[CCCCCCCCCCCCCCCC(=O)[*:2]].[gGlu]}$PEPTIDE1,PEPTIDE2,20:R3-2:R2$$$V2.0), the results for the EC50 on mGIPR and on mGLP-1R were 0.00965 nM and 0.0425 nM, respectively.
On the same counts, the results for `CCCCCCCCCCCCCCCC(=O)N[C@@H](CCC(=O)NCCCC[C@H](NC(=O)[C@H](CCC(N)=O)NC(=O)[C@H](C)NC(=O)[C@@H](NC(=O)[C@H](CCCCN)NC(=O)[C@H](CC(=O)O)NC(=O)[C@H](CC(C)C)NC(=O)[C@H](C)NC(=O)[C@@H](NC(=O)[C@H](CO)NC(=O)[C@H](Cc1ccc(O)cc1)NC(=O)[C@H](CC(=O)O)NC(=O)[C@H](CO)NC(=O)[C@@H](NC(=O)[C@H](Cc1ccccc1)NC(=O)[C@@H](NC(=O)CNC(=O)[C@H](CCC(=O)O)NC(=O)C(C)(C)NC(=O)[C@@H](N)Cc1ccc(O)cc1)[C@@H](C)O)[C@@H](C)O)[C@@H](C)CC)[C@@H](C)CC)C(=O)N[C@@H](C)C(=O)N[C@@H](Cc1ccccc1)C(=O)N[C@H](C(=O)N[C@@H](CCC(N)=O)C(=O)N[C@@H](Cc1c[nH]c2ccccc12)C(=O)N[C@@H](CC(C)C)C(=O)N[C@H](C(=O)N[C@@H](C)C(=O)NCC(=O)NCC(=O)N1CCC[C@H]1C(=O)N[C@@H](CO)C(=O)N[C@@H](CO)C(=O)NCC(=O)N[C@@H](C)C(=O)N1CCC[C@H]1C(=O)N1CCC[C@H]1C(=O)N1CCC[C@H]1C(=O)N[C@@H](CO)C(N)=O)[C@@H](C)CC)C(C)C)C(=O)O` [ID NO: 17] (HELM PEPTIDE1{Y.[Aib].E.G.T.F.T.S.D.Y.S.I.A.L.D.K.I.A.Q.K.A.F.V.Q.W.L.I.A.G.G.P.S.S.G.A.P.P.P.S.[am]}|PEPTIDE2{[CCCCCCCCCCCCCCCC(=O)[*:2]].[gGlu]}$PEPTIDE1,PEPTIDE2,20:R3-2:R2$$$V2.0) are 0.00972 nM and 0.0454 nM.
The like results for `CCCCCCCCCCCCCCCC(=O)N[C@@H](CCC(=O)NCCCC[C@H](NC(=O)[C@H](CCC(N)=O)NC(=O)[C@H](C)NC(=O)[C@@H](NC(=O)[C@H](CCCCN)NC(=O)[C@H](CC(=O)O)NC(=O)[C@H](CC(C)C)NC(=O)C(C)(C)NC(=O)[C@@H](NC(=O)[C@H](CO)NC(=O)[C@H](Cc1ccc(O)cc1)NC(=O)[C@H](CC(=O)O)NC(=O)[C@H](CO)NC(=O)[C@@H](NC(=O)[C@H](Cc1ccccc1)NC(=O)[C@@H](NC(=O)CNC(=O)[C@H](CCC(=O)O)NC(=O)C1(NC(=O)[C@@H](N)Cc2ccc(O)cc2)CCC1)[C@@H](C)O)[C@@H](C)O)[C@@H](C)CC)[C@@H](C)CC)C(=O)N[C@@H](C)C(=O)N[C@@H](Cc1ccccc1)C(=O)N[C@H](C(=O)N[C@@H](CCC(N)=O)C(=O)N[C@@H](Cc1c[nH]c2ccccc12)C(=O)N[C@@H](CC(C)C)C(=O)N[C@H](C(=O)N[C@@H](C)C(=O)NCC(=O)NCC(=O)N1CCC[C@H]1C(=O)N[C@@H](CO)C(=O)N[C@@H](CO)C(=O)NCC(=O)N[C@@H](C)C(=O)N1CCC[C@H]1C(=O)N1CCC[C@H]1C(=O)N1CCC[C@H]1C(=O)N[C@@H](CO)C(N)=O)[C@@H](C)CC)C(C)C)C(=O)O` [ID NO: 18] were, in that order, 0.00833 nM and 0.00902 nM.
The like results for `CCCCCCCCCCCCCCCC(=O)N[C@@H](CCC(=O)NCCCC[C@H](NC(=O)[C@H](CCC(N)=O)NC(=O)[C@H](C)NC(=O)[C@@H](NC(=O)[C@H](CCCCN)NC(=O)[C@H](CC(=O)O)NC(=O)[C@H](CC(C)C)NC(=O)C1(NC(=O)[C@@H](NC(=O)[C@H](CO)NC(=O)[C@H](Cc2ccc(O)cc2)NC(=O)[C@H](CC(=O)O)NC(=O)[C@H](CO)NC(=O)[C@@H](NC(=O)[C@H](Cc2ccccc2)NC(=O)[C@@H](NC(=O)CNC(=O)[C@H](CCC(=O)O)NC(=O)C(C)(C)NC(=O)[C@@H](N)Cc2ccc(O)cc2)[C@@H](C)O)[C@@H](C)O)[C@@H](C)CC)CCC1)[C@@H](C)CC)C(=O)N[C@@H](C)C(=O)N[C@@H](Cc1ccccc1)C(=O)N[C@H](C(=O)N[C@@H](CCC(N)=O)C(=O)N[C@@H](Cc1c[nH]c2ccccc12)C(=O)N[C@@H](CC(C)C)C(=O)N[C@H](C(=O)N[C@@H](C)C(=O)NCC(=O)NCC(=O)N1CCC[C@H]1C(=O)N[C@@H](CO)C(=O)N[C@@H](CO)C(=O)NCC(=O)N[C@@H](C)C(=O)N1CCC[C@H]1C(=O)N1CCC[C@H]1C(=O)N1CCC[C@H]1C(=O)N[C@@H](CO)C(N)=O)[C@@H](C)CC)C(C)C)C(=O)O` [ID NO: 19] were, in that order, 0.00791 nM and 0.0119 nM.
In the case of `CCCCCCCCCCCCCCCC(=O)N[C@@H](CCC(=O)NCCCC[C@H](NC(=O)[C@H](CCC(N)=O)NC(=O)[C@H](C)NC(=O)[C@@H](NC(=O)[C@H](CCCCN)NC(=O)[C@H](CC(=O)O)NC(=O)[C@H](CC(C)C)NC(=O)C(C)(C)NC(=O)[C@@H](NC(=O)[C@H](CO)NC(=O)[C@H](Cc1ccc(O)cc1)NC(=O)[C@H](CC(=O)O)NC(=O)[C@H](CO)NC(=O)[C@@H](NC(=O)[C@H](Cc1ccccc1)NC(=O)[C@@H](NC(=O)CNC(=O)[C@H](CCC(=O)O)NC(=O)C1(NC(=O)[C@@H](N)Cc2ccc(O)cc2)CCCC1)[C@@H](C)O)[C@@H](C)O)[C@@H](C)CC)[C@@H](C)CC)C(=O)N[C@@H](C)C(=O)N[C@@H](Cc1ccccc1)C(=O)N[C@H](C(=O)N[C@@H](CCC(N)=O)C(=O)N[C@@H](Cc1c[nH]c2ccccc12)C(=O)N[C@@H](CC(C)C)C(=O)N[C@H](C(=O)N[C@@H](C)C(=O)NCC(=O)NCC(=O)N1CCC[C@H]1C(=O)N[C@@H](CO)C(=O)N[C@@H](CO)C(=O)NCC(=O)N[C@@H](C)C(=O)N1CCC[C@H]1C(=O)N1CCC[C@H]1C(=O)N1CCC[C@H]1C(=O)N[C@@H](CO)C(N)=O)[C@@H](C)CC)C(C)C)C(=O)O` [ID NO: 20], the concentration for a half-maximal effect (EC50) at mGIPR was 0.00591 nM; on mGLP-1R, 0.0159 nM.
